Test results as given in ChEMBL document CHEMBL2074505, “Imaging reversal of multidrug resistance in living mice with bioluminescence: MDR1 P-glycoprotein transports coelenterazine” (Proc Natl Acad Sci U S A, 2004).

Target: ATP-dependent translocase ABCB1 (Homo sapiens, UniProt P08183)
Test: TP_TRANSPORTER: efflux in KB 8-5-11 Rluc cells
Format: functional, cell-based

Sequence of ATP-dependent translocase ABCB1 (P08183 whole entry): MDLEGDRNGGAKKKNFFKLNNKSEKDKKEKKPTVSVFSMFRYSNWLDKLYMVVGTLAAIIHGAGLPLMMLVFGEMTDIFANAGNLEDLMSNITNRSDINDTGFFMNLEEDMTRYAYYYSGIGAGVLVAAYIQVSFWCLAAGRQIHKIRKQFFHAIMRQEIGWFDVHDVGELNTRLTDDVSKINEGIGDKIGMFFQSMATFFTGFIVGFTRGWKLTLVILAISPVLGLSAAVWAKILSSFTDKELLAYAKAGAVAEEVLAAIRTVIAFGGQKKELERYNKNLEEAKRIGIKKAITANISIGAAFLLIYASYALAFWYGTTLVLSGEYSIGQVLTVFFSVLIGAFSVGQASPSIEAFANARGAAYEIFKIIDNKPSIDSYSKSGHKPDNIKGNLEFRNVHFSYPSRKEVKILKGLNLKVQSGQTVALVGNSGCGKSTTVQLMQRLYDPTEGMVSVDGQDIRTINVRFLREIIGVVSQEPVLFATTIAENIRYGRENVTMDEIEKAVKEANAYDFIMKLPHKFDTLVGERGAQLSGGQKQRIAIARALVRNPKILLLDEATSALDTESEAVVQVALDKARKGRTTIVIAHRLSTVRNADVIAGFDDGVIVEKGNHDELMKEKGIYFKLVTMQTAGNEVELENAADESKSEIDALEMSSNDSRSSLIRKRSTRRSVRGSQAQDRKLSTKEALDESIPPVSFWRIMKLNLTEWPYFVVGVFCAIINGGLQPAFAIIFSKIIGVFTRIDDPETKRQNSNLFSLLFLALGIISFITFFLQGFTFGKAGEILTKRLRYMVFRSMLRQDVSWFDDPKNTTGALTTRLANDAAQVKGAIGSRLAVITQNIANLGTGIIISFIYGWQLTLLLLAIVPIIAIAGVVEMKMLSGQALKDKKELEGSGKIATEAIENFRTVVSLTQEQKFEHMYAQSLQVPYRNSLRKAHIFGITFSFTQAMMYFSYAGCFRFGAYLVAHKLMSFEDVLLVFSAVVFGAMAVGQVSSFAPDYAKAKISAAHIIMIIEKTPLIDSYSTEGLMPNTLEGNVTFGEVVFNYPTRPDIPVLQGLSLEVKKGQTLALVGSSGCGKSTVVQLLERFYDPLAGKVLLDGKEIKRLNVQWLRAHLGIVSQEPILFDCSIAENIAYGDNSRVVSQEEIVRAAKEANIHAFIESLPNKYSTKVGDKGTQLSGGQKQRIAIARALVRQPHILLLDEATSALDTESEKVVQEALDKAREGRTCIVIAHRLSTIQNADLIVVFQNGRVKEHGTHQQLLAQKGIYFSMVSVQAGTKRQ

EC50: 147 nM
SMILES: Oc1ccc(Cc2nc3c(Cc4ccccc4)nc(-c4ccc(O)cc4)cn3c2O)cc1 [COELENTERAZINE]
